Measurements published in patent US6878381B2, “Resorcinol composition” (Pfizer, Inc, priority 1999, dated 2005).

Columns and labels:
human tyrosinase = biological target: T1, human tyrosinase (Homo sapiens, UniProt P14679); assay: Tyrosinase (DOPA oxidase) assay using cell lysate; format: biochemical; settings: SKMEL 188 human melanoma cell lysate; L-DOPA 100 μg/ml; 8 hr incubation; read at 405 nm
T1 construct: endogenous in cells; host or cells: SKMEL 188 human melanoma cell line (lysate)
T1 sequence (P14679 19-529): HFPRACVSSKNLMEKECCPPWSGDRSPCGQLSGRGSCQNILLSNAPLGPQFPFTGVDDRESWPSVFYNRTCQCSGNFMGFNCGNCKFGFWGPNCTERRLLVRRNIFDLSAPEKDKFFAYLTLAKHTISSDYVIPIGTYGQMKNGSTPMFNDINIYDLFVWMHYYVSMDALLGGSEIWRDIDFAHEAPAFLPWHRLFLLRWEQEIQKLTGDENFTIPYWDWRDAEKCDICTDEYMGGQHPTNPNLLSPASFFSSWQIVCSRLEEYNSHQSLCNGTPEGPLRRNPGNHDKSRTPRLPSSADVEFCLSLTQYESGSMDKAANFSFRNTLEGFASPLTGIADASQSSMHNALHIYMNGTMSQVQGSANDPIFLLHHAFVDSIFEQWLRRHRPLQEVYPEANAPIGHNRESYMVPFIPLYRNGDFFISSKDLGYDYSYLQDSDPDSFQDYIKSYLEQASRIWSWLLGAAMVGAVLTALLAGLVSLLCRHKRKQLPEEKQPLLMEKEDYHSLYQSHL
Description: 1. Tyrosinase (DOPA Oxidase) Assay Using Cell Lysate:
Human melanoma cell line, SKMEL 188 (licensed from Memorial Sloan-Kettering), is used in the cell lysate assay and the screen. In the assay, compounds and L-dihydroxyphenylalanine (L-DOPA) (100 μg/ml) are incubated with the cell lysates containing human tyrosinase for 8 hr before the plates are read at 405 nm. Potency of the compounds in DOPA oxidase assay is correlated very well with that in tyrosine hydroxylase assay using ^3H-tyrosine as a substrate.

[1] = tested on: guinea pig skin pigmentation; assay: In vivo study: skin depigmentation in black or dark brown guinea pigs; settings: 5% solution in ethanol:propylene glycol 70:30, topical, twice daily, 5 days per week for 4-8 weeks
From the text: Black or dark brown guinea pigs with homogeneous skin color can be used in this study. A solution of the test compound (5% in ethanol:propylene glycol, 70:30) and the vehicle control are applied to the animals twice daily, 5 days per week for 4-8 weeks.

## Oc1ccc(C2CCC(O)CC2)c(O)c1 (centres unmarked) [4-(2,4-dihydroxyphenyl)cyclohexanol]
Human tyrosinase
  IC50: 200 nM
[1]
  depigmentation of skin: depigmentation of skin
